This note sets out measurements from patent US7102000B2, “Heterocyclic amide derivatives for the treatment of diabetes and other diseases” (Incyte San Diego Inc., priority 2002, dated 2006).

For assay [1], the system named is diet-induced hypercholesterolemic Sprague Dawley rats. The assay can be described thus: Diet-induced hypercholesterolemia in wild type Sprague Dawley rats (total, HDL, LDL cholesterol). The class given is in vivo, rat. The settings on record: Sprague Dawley rats on atherogenic diet, oral once daily, day 5, FIGS. 5a–c. From the text: Experimental Procedure: Six week-old male Sprague Dawley rats (obtained from Harlan of San Diego, Calif.) were housed in a fixed 12—12-hr artificial light-dark cycle, and maintained on a high cholesterol atherogenic diet (Paigen's Diet, obtained from Research Diet Inc. of New Brounswick, N.J.) was provided ad libitum. Animals were allowed six days to acclimate in this experimental environment prior to the initiation of the study.
Prior to initiation of treatment, the animals were bled from the tail vein (100–200 μL of whole blood) and serum levels of cholesterol were measured in duplicate (Cholesterol Infinity kits; Sigma, St. Louis, Mo.). Based on these initial measures, animals were sorted into groups with approximately the same average total cholesterol levels. Once sorted, the animals were housed three per cage and maintained on Paigen's diet ad libitum. All compounds to be tested were suspended in sesame oil and administered in a final volume of 3 ml/kg. Drug is administered by oral gavage once daily at the beginning of the artificial light cycle. To obtain a base line for lipid measurement, a control group maintained on standart rodent diet is included (lean control).
Treatment Group A (n=6/group): (See Results in FIG. 5a) • 1) Lean control (Sesame Oil) • 2) Control • 3) Compound 2 (0.3 mg/kg) • 4) Compound 2 (1 mg/kg) • 5) Compound 2 (3 mg/kg)
Treatment Group B (n=6/group): (See Results in FIG. 5b) • 1) Lean control (Sesame Oil) • 2) Control • 3) Compound 6 (3 mg/kg)
Treatment Group C (n=6/group): (See Results in FIG. 5c) • 1) Lean control (10% HPβCD) • 2) Control • 3) Compound 25 (1 mg/kg) • 4) Compound 25 (3 mg/kg) • 5) Compound 25 (10 mg/kg) • 6) Compound 25 (15 mg/kg) • The compounds were dissolved in a 10% hydroxy propyl beta cyclodextrin solution, and administered to animals in a volume of 10 ml/kg/dose.
To monitor the effect of the tested compounds, animals were bled from the tail vein at the end of the dark cycle on days 0 (for sorting) and day 5 of the treatment period. Fed serum cholesterol levels were measured in duplicate. The blood is kept at room temperature to allow coagulation, after which the serum is separated and assayed for total cholesterol (Infinity reagent, Sigma), HDL cholesterol (using HDL precipitating reagent and infinity reagent, Sigma) and LDL cholesterol (EZLDL kit, Sigma). As shown in FIGS. 5a–c, all compounds tested show significant reduction in total and LDL cholesterol levels and a significant increase in HDL cholesterol levels compared to high fat fed control animals.

Assay [2] has as its system carcinogen induced mammary tumors. The assay can be described thus: Progression of carcinogen induced mammary tumors in Sprague Dawley rats. Format: in vivo, rat. The settings on record: oral once daily for four weeks, FIG. 6; for growth / progression of mammary (breast cancer) tumors: vs vehicle treated controls; for number of static tumors: compared to control animals. Here is the method: Procedure: Five week-old female Sprague Dawley rats (Harlan) were housed in a fixed 12–12-hr artificial light-dark cycle, and maintained on a standard rodent diet provided ad libitum. Animals were allowed two days to acclimate in this experimental environment prior to the initiation of the study.
To induce mammary tumors, the female […] were injected intraperitoneally with the carcinogen n-nitroso-n-methylurea, in a single dose of 50 mg/kg in acidified normal saline (pH 4 w/acetic acid) at a final volume of 10 mg/ml (5 ml/kg). After eight weeks, mammary tumors are detected, and the tumor bearing females are sorted into treatment groups. Once sorted, the animals were housed four per cage and provided rodent diet ad libitum. All animals are treated with compound 1 or a vehicle for four weeks, during which time changes in tumor size are monitored. Tumors were classified as regressing, static or progressing.
Treatment groups (n=8/group): • 1) Control (sesame oil) • 2) Compound 6 (20 mg/kg) • 3) Compound 11 (100 mg/kg) • 4) Compound 13 (50 mg/kg) • 5) Compound 24 (50 mg/kg) • 6) Compound 25 (20 mg/kg) • 7) Compound 25 (100 mg/kg)
All of the compounds tested were suspended in sesame oil, and administered to animals in a volume of 3 ml/kg/dose, except compound 25 which was dissolved in a 10% hydroxy propyl beta cyclodextrin solution, and administered to animals in a volume of 10 ml/kg/dose. All treatments were administered by oral gavage once daily for four weeks.
To monitor the effect of the tested compound, animals were examined for mammary tumors once every week. Tumors were classified into one of three categories, progressing, static or regressing.

For a further assay, the system named is KKA^y mice. The experiment in a line: Oral treatment of type 2 diabetes in KKA^y mice (serum glucose, triglyceride, cholesterol). The class given is in vivo, mouse. The settings on record: KKA^y mice, oral once daily, vs control mice, FIGS. 2a–d. From the text: The procedure for this in-vivo assay for anti-diabetes activity was described in detail by Iwatsuka, et al. (1970 General Survey of Diabetic Features of Yellow KK Mice. Endocrinol. Japon. 17: 23–35, incorporated herein in its entirety by reference).
Experimental Procedures: Six to eight week-old male KKA^y mice (obtained from Jackson Labs of Bar Harbord, Me.) were housed in a fixed 12–12-hr artificial light-dark cycle, and maintained on a standard rodent diet provided ad libitum. Animals were allowed two days to acclimate in this experimental environment prior to the initiation of the study.
Prior to initiation of treatment with the compounds of the invention, the animals were bled from the tail vein (100–200 μL of whole blood) and serum levels of glucose and triglycerides were measured in duplicate (Trinder kits; Sigma, St. Louis, Mo.). Based on these initial measures, animals were sorted into groups with approximately the same average serum glucose levels. Once sorted, the animals were housed one per cage and provided rodent diet ad libitum. Unless otherwise indicated, compounds were suspended in sesame oil, and administered by oral gavage once daily to animals in a volume of 3 ml/kg/dose.
Treatment Group A (n=5/group): (See Results in FIG. 2a) • 1) KKA^y vehicle control (sesame oil) • 2) Compound 1 (3 mg/kg) • 3) Compound 1 (10 mg/kg) • 4) Compound 2 (3 mg/kg) • 5) Compound 2 (10 mg/kg)
Treatment Group B (n=6/group): (See Results in FIG. 2b) • 1) KKA^y vehicle control (sesame oil) • 2) Compound 11 (15 mg/kg)
Treatment Group C (n=6/group): (See Results in FIG. 2c) • 1) KKA^y vehicle control (sesame oil) • 2) Compound 13 (15 mg/kg)
Treatment Group D (n=6/group): (See Results in FIG. 2d) • 1) KKA^y vehicle control (CMC) • 2) Compound 25 (3 mg/kg, CMC) Compound 25 was suspended in a solution of carboxymethyl cellulose (CMC; 1% carboxy methyl cellulose in H2O, with 10% polyethelene glycol 400), and administered to animals in a volume of 5 ml/kg/dose.
Treatment Group E (n=5/group): (See Results in FIG. 2e) • 1) KKA^y vehicle control (10% HPβCD) • 2) Compound 25 (1 mg/kg) • 3) Compound 25 (3 mg/kg) • 4) Compound 25 (10 mg/kg) Compound 25 was dissolved in a 10% hydroxy propyl beta cyclodextrin solution, and administered to animals in a volume of 10 ml/kg/dose.
Serum glucose, triglyceride and/or cholesterol levels were measured in duplicate. The blood is kept at room temperature to allow coagulation, after which the serum is separated and assayed for glucose, triglyceride and/or cholesterol levels. As shown in FIGS. 2a–2d all of the compounds tested reduced serum glucose and triglyceride levels, some with doses as low as 3 mg/kg when administered once a day.

For `CCN1C(=O)CC(C)(C)c2cc(C)c(-c3cc(/C=C4\SC(=O)NC4=O)ccc3Cl)cc21` [Compound 6, 5-[3-(1-Ethyl-4,4,6-trimethyl-2-oxo-1,2,3,4-tetrahydro-quinolin-7-yl)-4-chloro-benzylidene]-thiazolidine-2,4-dione], in assay [1], the HDL cholesterol entry was “increasing”, the LDL cholesterol result was “decrease” and the total cholesterol entry is “decrease”. Further, the “growth / progression of mammary (breast cancer) tumors” value (shortened to “growth / progression of mammary”) in assay [2] is “slow or cause regression”.
On to `Cc1cc2c(cc1-c1cc(/C=C3\SC(=O)NC3=O)ccc1OC(F)(F)F)N(C)C(=O)CC2(C)C` [Compound 1, 5-[3-(1,4,4,6-Tetramethyl-2-oxo-1,2,3,4-tetrahydro-quinolin-7-yl)-4-trifluoromethoxy-benzylidene]-thiazolidine-2,4-dione], for which, in the assay on KKA^y mice, the serum glucose level entry was “decrease” and the serum triglyceride level entry is recorded as “decrease”.
`Cc1cc2c(cc1-c1cc(/C=C3\SC(=O)NC3=O)ccc1OC(F)(F)F)N(C(C)C)C(=O)CC2(C)C` [Compound 11, 5-[3-(1-Isopropyl-4,4,6-trimethyl-2-oxo-1,2,3,4-tetrahydro-quinolin-7-yl)-4-trifluoromethoxy-benzylidene]-thiazolidine-2,4-dione]: in the assay with KKA^y mice, the serum glucose level result is given as “decrease” and the serum triglyceride level result is “decrease”. In assay [2], the regression of tumors entry is “without causing any regressions”, the “number of static tumors” value is on record as “only increase the number of static tumors” and the “growth / progression of mammary” value is recorded as “slow or cause regression”.
`CCN1C(=O)CC(C)(C)c2cc(C)c(-c3c(F)c(/C=C4\SC(=O)NC4=O)cc(F)c3OC)cc21` [Compound 13, 5-[3-(1-Ethyl-4,4,6-trimethyl-2-oxo-1,2,3,4-tetrahydro-quinolin-7-yl)-2,5-difluoro-4-methoxy-benzylidene]-thiazolidine-2,4-dione]: in the assay on KKA^y mice, the serum glucose level result is “decrease” and the serum triglyceride level result is recorded as “decrease”. In assay [2], the regression of tumors result is “without causing any regressions”, the “number of static tumors” value was “only increase the number of static tumors” and the “growth / progression of mammary” value is listed as “slow or cause regression”.
